According to the NIST ThermoML archive (doi:10.1016/j.jct.2010.08.010):
± gives the expanded uncertainty stated by the source.

Conditions: Liquid, Buoyancy - hydrostatic balance with magnetic suspension - one sinker

Cc1ccccc1 [toluene]
Conditions	mass density [kg/m3]
333.15 K, 9960.3 kPa	838.314 ± 0.2
333.15 K, 12120 kPa	840.218 ± 0.2
333.15 K, 14111 kPa	841.938 ± 0.2
333.15 K, 15857 kPa	843.417 ± 0.2
333.15 K, 18129 kPa	845.312 ± 0.2
333.15 K, 19860 kPa	846.724 ± 0.2
333.15 K, 22144 kPa	848.558 ± 0.2
333.15 K, 24050 kPa	850.059 ± 0.2
333.15 K, 25886 kPa	851.479 ± 0.2
333.15 K, 28037 kPa	853.128 ± 0.2
333.15 K, 29895 kPa	854.529 ± 0.2
353.15 K, 100.22 kPa	809.674 ± 0.19
353.15 K, 1169.9 kPa	810.881 ± 0.19
353.15 K, 2003.6 kPa	811.814 ± 0.19
353.15 K, 4142.5 kPa	814.153 ± 0.19
353.15 K, 6005.5 kPa	816.142 ± 0.19
353.15 K, 8141.3 kPa	818.365 ± 0.19
353.15 K, 10004 kPa	820.255 ± 0.19
353.15 K, 12008 kPa	822.24 ± 0.19
353.15 K, 14198 kPa	824.368 ± 0.19
353.15 K, 16142 kPa	826.212 ± 0.19
353.15 K, 18101 kPa	828.027 ± 0.19
353.15 K, 19917 kPa	829.683 ± 0.19
353.15 K, 22138 kPa	831.662 ± 0.19
353.15 K, 24034 kPa	833.323 ± 0.19
353.15 K, 26059 kPa	835.06 ± 0.2
353.15 K, 28105 kPa	836.785 ± 0.2
353.15 K, 29954 kPa	838.316 ± 0.2
373.15 K, 1259.9 kPa	791.299 ± 0.18
373.15 K, 2065.8 kPa	792.34 ± 0.18
373.15 K, 3870.7 kPa	794.611 ± 0.18
373.15 K, 6198.3 kPa	797.456 ± 0.19
373.15 K, 8095.9 kPa	799.709 ± 0.19
373.15 K, 9917.3 kPa	801.809 ± 0.19
373.15 K, 12114 kPa	804.274 ± 0.19
373.15 K, 13934 kPa	806.263 ± 0.19
373.15 K, 16020 kPa	808.493 ± 0.19
373.15 K, 18023 kPa	810.573 ± 0.19
373.15 K, 19927 kPa	812.508 ± 0.19
373.15 K, 22108 kPa	814.677 ± 0.19
373.15 K, 23970 kPa	816.486 ± 0.19
373.15 K, 25950 kPa	818.372 ± 0.19
373.15 K, 27874 kPa	820.167 ± 0.19
373.15 K, 29907 kPa	822.029 ± 0.19
393.15 K, 1097.4 kPa	770.672 ± 0.18
393.15 K, 1998.7 kPa	772.03 ± 0.18
393.15 K, 4084.6 kPa	775.078 ± 0.18
393.15 K, 6214.8 kPa	778.084 ± 0.18
393.15 K, 8059.3 kPa	780.589 ± 0.18
393.15 K, 9988.4 kPa	783.137 ± 0.18
393.15 K, 12134 kPa	785.871 ± 0.18
393.15 K, 14051 kPa	788.257 ± 0.18
393.15 K, 16078 kPa	790.683 ± 0.18
393.15 K, 18012 kPa	792.945 ± 0.18
393.15 K, 19811 kPa	794.994 ± 0.18
393.15 K, 22110 kPa	797.55 ± 0.19
393.15 K, 23923 kPa	799.514 ± 0.19
393.15 K, 25870 kPa	801.576 ± 0.19
393.15 K, 27974 kPa	803.747 ± 0.19
393.15 K, 29891 kPa	805.692 ± 0.19
413.15 K, 1099.1 kPa	749.389 ± 0.18
413.15 K, 1960.8 kPa	750.924 ± 0.18
413.15 K, 4038.3 kPa	754.503 ± 0.18
413.15 K, 6026.6 kPa	757.773 ± 0.18
413.15 K, 8189.1 kPa	761.18 ± 0.18
413.15 K, 9852 kPa	763.702 ± 0.18
413.15 K, 12117 kPa	767.016 ± 0.18
413.15 K, 14168 kPa	769.904 ± 0.18
413.15 K, 16108 kPa	772.544 ± 0.18
413.15 K, 18095 kPa	775.165 ± 0.18
413.15 K, 20104 kPa	777.733 ± 0.18
413.15 K, 22152 kPa	780.275 ± 0.18
413.15 K, 24009 kPa	782.518 ± 0.18
413.15 K, 25996 kPa	784.857 ± 0.18
413.15 K, 27793 kPa	786.922 ± 0.18
413.15 K, 29815 kPa	789.193 ± 0.18
433.15 K, 1101.8 kPa	726.984 ± 0.17
433.15 K, 1976.7 kPa	728.858 ± 0.17
433.15 K, 4084.4 kPa	733.177 ± 0.17
433.15 K, 6154.5 kPa	737.18 ± 0.17
433.15 K, 8078.7 kPa	740.731 ± 0.17
433.15 K, 9952.6 kPa	744.032 ± 0.17
433.15 K, 11980 kPa	747.451 ± 0.17
433.15 K, 13969 kPa	750.677 ± 0.18
433.15 K, 16091 kPa	753.964 ± 0.18
433.15 K, 17961 kPa	756.765 ± 0.18
433.15 K, 19890 kPa	759.561 ± 0.18
433.15 K, 22082 kPa	762.624 ± 0.18
433.15 K, 24002 kPa	765.215 ± 0.18
433.15 K, 26049 kPa	767.899 ± 0.18
433.15 K, 27836 kPa	770.185 ± 0.18
433.15 K, 29993 kPa	772.844 ± 0.18
453.15 K, 1107.5 kPa	703.102 ± 0.17
453.15 K, 2037.8 kPa	705.548 ± 0.17
453.15 K, 4185.3 kPa	710.874 ± 0.17
453.15 K, 6060.4 kPa	715.218 ± 0.17
453.15 K, 8005.2 kPa	719.474 ± 0.17
453.15 K, 9870.3 kPa	723.328 ± 0.17
453.15 K, 12115 kPa	727.721 ± 0.17
453.15 K, 14139 kPa	731.482 ± 0.17
453.15 K, 16027 kPa	734.835 ± 0.17
453.15 K, 17928 kPa	738.09 ± 0.17
453.15 K, 20153 kPa	741.727 ± 0.17
453.15 K, 22071 kPa	744.756 ± 0.17
453.15 K, 24057 kPa	747.767 ± 0.17
453.15 K, 26029 kPa	750.661 ± 0.17
453.15 K, 27966 kPa	753.404 ± 0.18
453.15 K, 29817 kPa	755.955 ± 0.18
473.15 K, 1104.4 kPa	677.2 ± 0.16
473.15 K, 2031.3 kPa	680.289 ± 0.16
473.15 K, 4033.8 kPa	686.456 ± 0.16
473.15 K, 6024.4 kPa	692.111 ± 0.16
473.15 K, 7930.8 kPa	697.122 ± 0.16
473.15 K, 10107 kPa	702.459 ± 0.16
473.15 K, 11931 kPa	706.639 ± 0.17
473.15 K, 13959 kPa	711.045 ± 0.17
473.15 K, 16004 kPa	715.254 ± 0.17
473.15 K, 17878 kPa	718.918 ± 0.17
473.15 K, 19844 kPa	722.599 ± 0.17
473.15 K, 22088 kPa	726.587 ± 0.17
473.15 K, 24074 kPa	729.989 ± 0.17
473.15 K, 26038 kPa	733.203 ± 0.17
473.15 K, 27840 kPa	736.071 ± 0.17
473.15 K, 29806 kPa	739.091 ± 0.17
